As a reminder, the IC50 is the concentration that gives 50% inhibition. The low end stands for greater potency in that assay, the high end for weaker potency in that assay. As a reminder, the Tmax is the time at which the peak concentration occurs. By Cmax is commonly meant the highest concentration seen after dosing.

This note sets out measurements from ChEMBL document CHEMBL1133741, “New anilinophthalazines as potent and orally well absorbed inhibitors of the VEGF receptor tyrosine kinases useful as antagonists of tumor-driven angiogenesis” (J Med Chem, 2000).

Some results are limits rather than exact numbers.

Data set [1] concerns the target Vascular endothelial growth factor receptor 1 (Homo sapiens, UniProt P17948). Nature of the data set: Inhibitory activity against Flt-kinase.
The target of data set [2] is T1, Vascular endothelial growth factor receptor 2 (Homo sapiens, UniProt P35968). Kind of data set: Inhibitory activity against kinase domain containing receptor (KDR/VEGFR2).
Data set [3] in a line: The maximum time reported (tmax) at an oral dose of 50 mg/Kg in mice. The data set is classed as ADME, organism-based. The following applies: mouse, in vivo.
Another data set has as its system Mus musculus. Nature of the data set: (§1) The maximum concentration observed (Cmax) in the blood sample at indicated time point (tmax) at a dose 50 mg/Kg administered orally in mice. It is filed as ADME, organism-based. More on the design: dose 50 mg/Kg, route oral. The following applies: in vivo, po.
The target of data set [4] is T1, Vascular endothelial growth factor receptor 2. The settings on record: CHO.
In data set [5] the target is Mast/stem cell growth factor receptor Kit (Homo sapiens, UniProt P10721). Kind of data set: Inhibition of Proto-oncogene tyrosine-kinase c-Kit.
The target of data set [6] is Platelet-derived growth factor receptor beta (Homo sapiens, UniProt P09619). Nature of the data set: Inhibition of PDGF- beta receptor kinase.
Data set [7] can be described thus: as §1. The data set is classed as ADME, organism-based. Set-up: dose 50 mg/Kg, route oral. The following applies: mouse, in vivo, po.

Platelet-derived growth factor receptor beta, sequence (P09619 whole entry): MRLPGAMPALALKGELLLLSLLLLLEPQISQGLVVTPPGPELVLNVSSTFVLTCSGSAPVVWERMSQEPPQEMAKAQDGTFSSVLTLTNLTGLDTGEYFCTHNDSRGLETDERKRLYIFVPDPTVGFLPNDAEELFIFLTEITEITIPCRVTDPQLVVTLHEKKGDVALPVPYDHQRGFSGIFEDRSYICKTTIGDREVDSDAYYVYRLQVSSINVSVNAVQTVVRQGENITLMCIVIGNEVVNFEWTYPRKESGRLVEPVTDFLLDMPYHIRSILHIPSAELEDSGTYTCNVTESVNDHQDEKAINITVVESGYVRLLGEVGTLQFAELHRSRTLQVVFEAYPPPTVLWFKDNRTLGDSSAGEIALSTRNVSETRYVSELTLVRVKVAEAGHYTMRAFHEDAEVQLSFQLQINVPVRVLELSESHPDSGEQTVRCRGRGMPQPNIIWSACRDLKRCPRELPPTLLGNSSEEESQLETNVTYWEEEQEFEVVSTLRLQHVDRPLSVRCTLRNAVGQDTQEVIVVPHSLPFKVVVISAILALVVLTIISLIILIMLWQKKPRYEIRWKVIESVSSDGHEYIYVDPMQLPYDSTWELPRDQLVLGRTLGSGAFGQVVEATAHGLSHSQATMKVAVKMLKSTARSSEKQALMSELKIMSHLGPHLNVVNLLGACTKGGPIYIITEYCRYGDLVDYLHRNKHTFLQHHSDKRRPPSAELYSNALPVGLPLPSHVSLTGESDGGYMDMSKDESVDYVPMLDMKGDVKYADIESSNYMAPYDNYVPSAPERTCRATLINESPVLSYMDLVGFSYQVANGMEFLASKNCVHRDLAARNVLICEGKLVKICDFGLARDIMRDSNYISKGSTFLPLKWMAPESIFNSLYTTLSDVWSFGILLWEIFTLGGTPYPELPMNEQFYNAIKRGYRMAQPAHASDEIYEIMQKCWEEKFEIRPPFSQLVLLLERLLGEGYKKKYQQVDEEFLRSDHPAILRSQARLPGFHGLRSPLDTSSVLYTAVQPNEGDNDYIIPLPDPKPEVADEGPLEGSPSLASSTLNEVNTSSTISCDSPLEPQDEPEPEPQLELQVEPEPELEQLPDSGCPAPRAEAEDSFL
Mast/stem cell growth factor receptor Kit, sequence (P10721 whole entry): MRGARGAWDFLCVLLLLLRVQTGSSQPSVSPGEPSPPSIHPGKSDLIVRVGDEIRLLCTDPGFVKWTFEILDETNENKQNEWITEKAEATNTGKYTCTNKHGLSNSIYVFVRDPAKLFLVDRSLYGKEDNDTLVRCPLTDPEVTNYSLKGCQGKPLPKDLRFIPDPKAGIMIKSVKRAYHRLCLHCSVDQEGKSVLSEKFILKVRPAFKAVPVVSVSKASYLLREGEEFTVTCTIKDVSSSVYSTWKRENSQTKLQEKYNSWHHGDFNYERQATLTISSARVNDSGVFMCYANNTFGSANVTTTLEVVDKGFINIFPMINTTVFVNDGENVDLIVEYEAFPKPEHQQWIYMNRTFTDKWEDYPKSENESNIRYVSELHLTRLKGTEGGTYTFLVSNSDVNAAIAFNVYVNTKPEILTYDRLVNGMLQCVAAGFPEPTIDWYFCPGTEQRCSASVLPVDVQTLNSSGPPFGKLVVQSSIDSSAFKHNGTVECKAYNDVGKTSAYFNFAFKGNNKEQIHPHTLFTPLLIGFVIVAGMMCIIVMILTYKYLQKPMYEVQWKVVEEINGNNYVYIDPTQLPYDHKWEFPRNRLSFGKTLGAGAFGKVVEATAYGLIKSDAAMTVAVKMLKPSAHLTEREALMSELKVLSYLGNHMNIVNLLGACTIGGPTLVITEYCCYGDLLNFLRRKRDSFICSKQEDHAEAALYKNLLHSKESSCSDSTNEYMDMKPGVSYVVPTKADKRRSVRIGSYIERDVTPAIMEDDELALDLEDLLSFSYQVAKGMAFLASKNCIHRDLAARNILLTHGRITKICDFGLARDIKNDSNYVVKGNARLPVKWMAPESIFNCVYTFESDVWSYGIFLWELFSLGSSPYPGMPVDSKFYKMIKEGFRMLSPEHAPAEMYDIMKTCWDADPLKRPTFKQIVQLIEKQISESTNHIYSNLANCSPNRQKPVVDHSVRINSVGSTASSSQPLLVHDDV
Vascular endothelial growth factor receptor 1, sequence (P17948 whole entry, the tested form may be a part): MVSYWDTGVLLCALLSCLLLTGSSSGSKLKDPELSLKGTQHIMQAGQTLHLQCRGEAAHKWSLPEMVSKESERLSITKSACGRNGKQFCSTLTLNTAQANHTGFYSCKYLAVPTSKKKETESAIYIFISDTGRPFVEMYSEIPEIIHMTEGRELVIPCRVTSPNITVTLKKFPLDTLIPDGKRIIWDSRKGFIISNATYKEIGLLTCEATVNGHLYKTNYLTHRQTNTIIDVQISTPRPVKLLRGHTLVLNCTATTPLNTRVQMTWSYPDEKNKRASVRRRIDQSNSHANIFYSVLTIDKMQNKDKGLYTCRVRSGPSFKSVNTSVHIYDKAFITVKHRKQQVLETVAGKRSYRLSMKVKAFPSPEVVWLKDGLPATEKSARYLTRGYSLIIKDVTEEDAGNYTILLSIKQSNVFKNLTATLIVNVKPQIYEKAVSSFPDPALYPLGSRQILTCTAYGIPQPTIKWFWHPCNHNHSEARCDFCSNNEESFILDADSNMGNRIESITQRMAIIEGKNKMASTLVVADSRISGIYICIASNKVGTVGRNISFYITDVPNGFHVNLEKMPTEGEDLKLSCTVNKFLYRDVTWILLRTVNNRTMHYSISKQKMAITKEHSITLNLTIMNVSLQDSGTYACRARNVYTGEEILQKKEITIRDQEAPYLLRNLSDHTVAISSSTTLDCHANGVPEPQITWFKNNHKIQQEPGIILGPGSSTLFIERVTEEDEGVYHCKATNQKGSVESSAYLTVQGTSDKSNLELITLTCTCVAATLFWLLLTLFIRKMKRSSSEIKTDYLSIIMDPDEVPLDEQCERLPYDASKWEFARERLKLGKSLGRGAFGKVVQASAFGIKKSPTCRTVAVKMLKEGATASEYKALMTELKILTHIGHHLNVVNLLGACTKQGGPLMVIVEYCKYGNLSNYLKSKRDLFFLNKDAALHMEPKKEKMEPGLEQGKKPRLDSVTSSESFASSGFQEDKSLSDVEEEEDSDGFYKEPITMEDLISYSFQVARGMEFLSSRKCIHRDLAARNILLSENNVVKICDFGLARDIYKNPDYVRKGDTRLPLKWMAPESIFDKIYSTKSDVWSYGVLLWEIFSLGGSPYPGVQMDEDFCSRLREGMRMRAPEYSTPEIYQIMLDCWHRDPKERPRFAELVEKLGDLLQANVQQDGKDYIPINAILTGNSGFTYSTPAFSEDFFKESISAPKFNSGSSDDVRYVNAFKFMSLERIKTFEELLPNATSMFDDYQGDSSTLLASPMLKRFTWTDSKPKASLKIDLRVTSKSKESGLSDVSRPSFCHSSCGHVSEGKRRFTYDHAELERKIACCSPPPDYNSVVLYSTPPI
T1 sequence (P35968 whole entry, the tested form may be a part): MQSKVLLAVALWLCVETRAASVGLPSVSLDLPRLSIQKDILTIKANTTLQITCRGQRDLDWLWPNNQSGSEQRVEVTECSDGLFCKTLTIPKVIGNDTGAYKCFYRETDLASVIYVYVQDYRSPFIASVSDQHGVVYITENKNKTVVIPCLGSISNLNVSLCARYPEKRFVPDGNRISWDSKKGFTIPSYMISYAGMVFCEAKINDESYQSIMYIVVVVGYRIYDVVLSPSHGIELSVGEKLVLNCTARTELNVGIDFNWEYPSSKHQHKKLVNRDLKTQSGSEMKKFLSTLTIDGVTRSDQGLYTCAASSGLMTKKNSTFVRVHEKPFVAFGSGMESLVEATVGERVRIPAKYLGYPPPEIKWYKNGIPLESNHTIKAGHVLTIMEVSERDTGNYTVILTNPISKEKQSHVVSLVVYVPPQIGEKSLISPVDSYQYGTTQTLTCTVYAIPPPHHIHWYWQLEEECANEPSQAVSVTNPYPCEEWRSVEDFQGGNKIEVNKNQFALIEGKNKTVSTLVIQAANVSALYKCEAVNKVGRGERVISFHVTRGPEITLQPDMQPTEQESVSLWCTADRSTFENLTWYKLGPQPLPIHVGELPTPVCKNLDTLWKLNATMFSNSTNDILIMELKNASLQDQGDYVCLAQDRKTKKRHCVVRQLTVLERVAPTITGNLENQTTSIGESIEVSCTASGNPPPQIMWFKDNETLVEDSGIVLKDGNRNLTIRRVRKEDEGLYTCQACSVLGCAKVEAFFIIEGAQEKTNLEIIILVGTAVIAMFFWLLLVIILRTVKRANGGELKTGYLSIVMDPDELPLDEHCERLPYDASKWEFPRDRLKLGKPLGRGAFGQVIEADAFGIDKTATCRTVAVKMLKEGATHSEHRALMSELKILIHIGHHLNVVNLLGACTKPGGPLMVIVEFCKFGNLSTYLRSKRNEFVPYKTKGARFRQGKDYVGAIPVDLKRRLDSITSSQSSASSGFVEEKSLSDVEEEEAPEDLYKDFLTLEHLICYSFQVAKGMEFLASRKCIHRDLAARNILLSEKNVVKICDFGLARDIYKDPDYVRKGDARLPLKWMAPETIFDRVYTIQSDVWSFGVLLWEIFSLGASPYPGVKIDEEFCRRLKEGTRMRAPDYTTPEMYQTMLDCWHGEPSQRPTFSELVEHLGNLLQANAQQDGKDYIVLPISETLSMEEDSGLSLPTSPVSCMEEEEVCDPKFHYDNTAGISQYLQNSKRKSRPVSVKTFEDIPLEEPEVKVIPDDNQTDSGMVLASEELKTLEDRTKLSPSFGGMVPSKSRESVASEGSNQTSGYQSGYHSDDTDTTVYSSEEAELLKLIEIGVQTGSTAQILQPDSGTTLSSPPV

`Cc1c(Cc2ccncc2)nnc(Nc2ccc(Cl)cc2)c1C` had an IC50 in data set [1] of 260 nM.
In data set [2], `Cc1cc(Cc2nnc(Nc3ccc(Cl)cc3)c3ccccc23)ccn1` showed an IC50 of 240 nM. This lies in the sub-micromolar range.
For `Clc1ccc(Nc2nnc(Cc3ccccn3)c3ccccc23)cc1`, the concentration for half-maximal inhibition (IC50) in data set [2] and in data set [1] was above 10000 nM each time.
With `Cc1cc(C)c(/C=C2\C(=O)Nc3ccccc32)[nH]1` [SEMAXANIB], the time to peak (Tmax) in data set [3] was 30 min. For the same compound, in the data set on Mus musculus, the Cmax is 0.3 µM. Besides, the ED50 in data set [4] came out at 930 nM.
`Cc1cc(Cc2nnc(Nc3ccc(Cl)cc3)c3ccccc23)cc(C)n1`: the IC50 in data set [2] and in data set [1] was above 10000 nM each time.
Turning to `Clc1ccc(Nc2nnc(Cc3cccnc3)c3ccccc23)cc1`, the IC50 is above 10000 nM in data set [2] and 9800 nM in data set [1].
The matching figures for `Cc1ccc2c(Cc3ccncc3)nnc(Nc3ccc(Cl)cc3)c2c1`: 4700 nM and 3000 nM.
Consider `Clc1ccc(Nc2nnc(Cc3ccncc3)c3ncccc23)cc1`, for which the IC50 in data set [1] was 240 nM.
On to `Fc1cc(Nc2nnc(Cc3ccncc3)c3ccccc23)cc(C(F)(F)F)c1`, for which the IC50 was 200 nM in data set [2], above 10000 nM in data set [5], above 10000 nM in data set [6] and 350 nM in data set [1]. This compound gave an ED50 in data set [4] of 40 nM.
In the case of `FC(F)(F)c1cc(Nc2nnc(Cc3ccncc3)c3ccccc23)ccc1Cl`, the time of peak concentration (Tmax) in data set [3] is 120 min. The figures for the half-inhibitory concentration (IC50) in data set [5], in data set [6] and in data set [1] were 2700 nM, 4000 nM and 600 nM, respectively. Moreover, the concentration in data set [7] peaked (Cmax) at 7.6 µM.
Turning to `FC(F)(F)c1cc(Br)cc(Nc2nnc(Cc3ccncc3)c3ccccc23)c1`, the time of peak concentration (Tmax) in data set [3] was 120 min. Also, the IC50 was 380 nM in data set [2], above 10000 nM in data set [5], above 10000 nM in data set [6] and 600 nM in data set [1]. For the same compound, the Cmax in data set [7] came out at 6 µM. Also, in data set [4], the ED50 worked out at 39 nM.
Turning to `Clc1ccc(Nc2nnc(Cc3ccncc3)c3ccccc23)cc1Cl`, in data set [3], the Tmax was 30 min. Moreover, the IC50 in data set [2] turned out to be 30 nM; in data set [5] it was 700 nM; in data set [6] it was 600 nM; in data set [1], 70 nM. The compound also gave a Cmax in data set [7] of 9.8 µM. This compound yielded an ED50 in data set [4] of 27 nM.
As to `CN(c1ccc(Cl)cc1)c1nnc(Cc2ccncc2)c2ccccc12`, the concentration for half-maximal inhibition (IC50) in data set [2] is 3500 nM; in data set [1] it was 2300 nM.
Turning to `c1ccc(-c2ccc(Nc3nnc(Cc4ccncc4)c4ccccc34)cc2)cc1`, the IC50 in data set [5] and in data set [6] was 1400 nM in each case.
In the case of `CC(C)(C)c1ccc(Nc2nnc(Cc3ccncc3)c3ccccc23)cc1`, in data set [3], the time to peak (Tmax) was 30 min. The IC50 in data set [5] turned out to be 1000 nM; in data set [6] it was 2000 nM. The compound further showed a maximum concentration (Cmax) in data set [7] of 25.6 µM.
For the compound `Clc1ccc(Sc2nnc(Cc3ccncc3)c3ccccc23)cc1`, the values for the IC50 in data set [2] and in data set [1] were 1300 nM and 70 nM, respectively.
For `Clc1ccc(Nc2nnc(NCc3ccncc3)c3ccccc23)cc1`, in that order: 4700 nM and 2600 nM.
Turning to `Clc1ccc(Oc2nnc(Cc3ccncc3)c3ccccc23)cc1`, the half-inhibitory concentration (IC50) in data set [2] is 1600 nM; in data set [1], 60 nM.
For `Clc1ccc(Nc2nnc(Cc3ccncn3)c3ccccc23)cc1`, in that order: 410 nM and 760 nM.
Consider `Clc1ccc(Nc2nnc(Cc3ccncc3)c3ccccc23)cc1.O=C(O)CCC(=O)O`, for which the Tmax in data set [3] is 15 min. The Cmax in data set [7] amounted to 32 µM.
As to `Clc1ccc(Nc2nnc(Cc3ccncc3)c3c2CCCC3)cc1`, the IC50 in data set [2] is above 10000 nM; in data set [1] it was 3600 nM.
In the case of `Cc1cc(C)cc(Nc2nnc(Cc3ccncc3)c3ccccc23)c1`, the Tmax in data set [3] is 30 min. Moreover, the half-maximal inhibitory concentration (IC50) in data set [2] is 40 nM; in data set [5], 2000 nM; in data set [6], 800 nM; in data set [1] it was 150 nM. In addition, the Cmax in data set [7] came to 10 µM. The same compound came in with an ED50 in data set [4] of 10 nM.
`Nc1ccc2c(Cc3ccncc3)nnc(Nc3ccc(Cl)cc3)c2c1` displayed a concentration for half-maximal inhibition (IC50) in data set [1] of 650 nM.
Turning to `COc1cccc(Nc2nnc(Cc3ccncc3)c3ccccc23)c1`, the time of peak concentration (Tmax) in data set [3] is 30 min. Also, the IC50 in data set [5] turned out to be 3000 nM; in data set [6], 800 nM. Also, in data set [7], the peak level (Cmax) was 21 µM.
For `Clc1ccc(Nc2nnc(Cc3ccncc3)c3cnccc23)cc1`, the 50% inhibitory concentration (IC50) in data set [2] came to 610 nM; in data set [1], 230 nM.
Turning to `Clc1ccc(Nc2nnc(Cc3ccncc3)c3ccncc23)cc1`, in data set [1], the 50% inhibitory concentration (IC50) was 470 nM.
Still for that read-out and setting: in the case of `Clc1ccc(Nc2nnc(Cc3ccncc3)c3cccnc23)cc1` it was 1700 nM.
Take `Oc1cccc(Nc2nnc(Cc3ccncc3)c3ccccc23)c1`: the time of peak concentration (Tmax) in data set [3] is 30 min. Further, the IC50 in data set [5] was 7900 nM; in data set [6], 4000 nM. Also, the highest level in data set [7] (Cmax) was 0.5 µM.
For the compound `CC(c1ccncc1)c1nnc(Nc2ccc(Cl)cc2)c2ccccc12` (centres undefined), the results for the IC50 in data set [2] and in data set [1] were 210 nM and 420 nM, respectively.
`COc1cc(Nc2nnc(Cc3ccncc3)c3ccccc23)ccc1Cl`: the time to peak (Tmax) in data set [3] was 30 min. Moreover, the IC50 in data set [5] was 3500 nM; in data set [6], 2000 nM; in data set [1] it was 260 nM. Besides, the Cmax in data set [7] is 8 µM.
In the case of `Cc1cccc(Nc2nnc(Cc3ccncc3)c3ccccc23)c1`, the Tmax in data set [3] is 30 min. For the same compound, the IC50 in data set [2] is 80 nM; in data set [5], 2500 nM; in data set [6], 1000 nM; in data set [1], 40 nM. Moreover, the peak level in data set [7] (Cmax) was 13 µM. For the same compound, in data set [4], the ED50 is 8 nM.
Take `c1ccc(Nc2nnc(Cc3ccncc3)c3ccccc23)cc1`: the concentration for half-maximal inhibition (IC50) in data set [5] was above 10000 nM; in data set [6], 2800 nM.
